Among the data in ChEMBL document CHEMBL1131906, “Synthesis and structure-activity relationships of new second-generation taxoids” (Bioorg Med Chem Lett, 1999) are IC50 and Ratio values, retold here.

The IC50 is the point on the concentration scale where inhibition reaches its midpoint.

The test system of assay [1] is MCF7. Briefly: Inhibitory activity against the growth of MCF-7R ( multi drug resistant human breast carcinoma) cell line after 72 hours of drug exposure. The class given is functional, cell-based. Conditions: MCF7, 72 h.
The test system of assay [2] is MCF7. Briefly: Inhibitory activity against the growth of MCF-7 (human breast carcinoma) cell line after 72 hours of drug exposure. The settings on record: MCF7, 72 h. The class given is functional, cell-based.
Assay [3] in a line: Inhibitory activity against the growth of LCC6-WT (human breast carcinoma) cell line after 72 hours of drug exposure. The class given is functional.
For assay [4], the system named is MCF7. Nature of the assay: Ratio of activities, drug resistant (R) to drug sensitive (S) carcinoma cell lines. The class given is functional, Homo sapiens.
The nature of assay [5]: Inhibitory activity against the growth of LCC6-MDR (Multi Drug Resistant 1 transduced line) cell line after 72 hours of drug exposure. The class given is functional. Conditions: Homo sapiens, LCC6MDR.

In the case of `CCC(=O)O[C@H]1C(=O)[C@@]2(C)C([C@H](OC(=O)c3cccc(N=[N+]=[N-])c3)[C@]3(O)C[C@H](OC(=O)[C@H](O)[C@H](C=C(C)C)NC(=O)OC(C)(C)C)C(C)=C1C3(C)C)[C@]1(OC(C)=O)CO[C@@H]1C[C@@H]2O` (some centres undefined), the IC50 in the assay with MCF7 [1] was determined as 1.1 nM; in the assay with MCF7 [2] it was 0.9 nM; in assay [3] it was 0.9 nM.
`CCC(=O)O[C@H]1C(=O)[C@@]2(C)C([C@H](OC(=O)c3cccc(F)c3)[C@]3(O)C[C@H](OC(=O)[C@H](O)[C@H](C=C(C)C)NC(=O)OC(C)(C)C)C(C)=C1C3(C)C)[C@]1(OC(C)=O)CO[C@@H]1C[C@@H]2O` (some centres undefined): the IC50 in assay [3] was 0.5 nM. In other words, the sub-nanomolar range.
Take `CCC(=O)O[C@H]1C(=O)[C@@]2(C)C([C@H](OC(=O)c3cccc(N=[N+]=[N-])c3)[C@]3(O)C[C@H](OC(=O)[C@H](O)[C@H](CC(C)C)NC(=O)OC(C)(C)C)C(C)=C1C3(C)C)[C@]1(OC(C)=O)CO[C@@H]1C[C@@H]2O` (some centres undefined): the IC50 in the assay on MCF7 [1] is 2.1 nM; in the assay with MCF7 [2] it was 1 nM; in assay [3], 1.1 nM.
In the case of `COc1cccc(C(=O)O[C@H]2C3[C@](C)(C(=O)[C@H](OC(=O)C4CC4)C4=C(C)[C@@H](OC(=O)[C@H](O)[C@H](C=C(C)C)NC(=O)OC(C)(C)C)C[C@]2(O)C4(C)C)[C@@H](O)C[C@H]2OC[C@@]32OC(C)=O)c1` (some centres undefined), the Ratio with MCF7 [4] was determined as 2.9. For the same compound, the IC50 in assay [5] turned out to be 2.9 nM; in assay [3], 1 nM.
For `C/C=C\[C@H](NC(=O)OC(C)(C)C)[C@@H](O)C(=O)O[C@H]1C[C@@]2(O)[C@@H](OC(=O)c3cccc(OC)c3)C3[C@](C)(C(=O)[C@H](OC(=O)CC)C(=C1C)C2(C)C)[C@@H](O)C[C@H]1OC[C@@]31OC(C)=O` (some centres undefined), the half-inhibitory concentration (IC50) in assay [3] worked out at 1.2 nM. In other words, the single-digit nanomolar range.
`C=CCC[C@H](NC(=O)OC(C)(C)C)[C@@H](O)C(=O)O[C@H]1C[C@@]2(O)[C@@H](OC(=O)c3cccc(OC)c3)C3[C@](C)(C(=O)[C@H](OC(=O)CC)C(=C1C)C2(C)C)[C@@H](O)C[C@H]1OC[C@@]31OC(C)=O` (some centres undefined): the IC50 amounted to 7.7 nM with MCF7 [1], 2 nM in the assay with MCF7 [2] and 0.9 nM in assay [3].
Turning to `C=Cc1cccc(C(=O)O[C@H]2C3[C@](C)(C(=O)[C@H](OC(=O)CC)C4=C(C)[C@@H](OC(=O)[C@H](O)[C@H](C=C(C)C)NC(=O)OC(C)(C)C)C[C@]2(O)C4(C)C)[C@@H](O)C[C@H]2OC[C@@]32OC(C)=O)c1` (some centres undefined), half-maximal inhibition in assay [3] (IC50) required 2.9 nM. That is a single-digit nanomolar value.
Turning to `C=CC[C@H](NC(=O)OC(C)(C)C)[C@@H](O)C(=O)O[C@H]1C[C@@]2(O)[C@@H](OC(=O)c3cccc(OC)c3)C3[C@](C)(C(=O)[C@H](OC(=O)CC)C(=C1C)C2(C)C)[C@@H](O)C[C@H]1OC[C@@]31OC(C)=O` (some centres undefined), the IC50 in the assay with MCF7 [1] came to 8.7 nM; in the assay with MCF7 [2], 0.8 nM; in assay [3], 1.2 nM.
As for `CCC(=O)O[C@H]1C(=O)[C@@]2(C)C([C@H](OC(=O)c3cccc(Cl)c3)[C@]3(O)C[C@H](OC(=O)[C@H](O)[C@H](C=C(C)C)NC(=O)OC(C)(C)C)C(C)=C1C3(C)C)[C@]1(OC(C)=O)CO[C@@H]1C[C@@H]2O` (some centres undefined), the IC50 in assay [3] was found to be 0.8 nM.
Take `CC(=O)O[C@H]1C(=O)[C@@]2(C)C([C@H](OC(=O)c3cccc(C)c3)[C@]3(O)C[C@H](OC(=O)[C@H](O)[C@H](C=C(C)C)NC(=O)OC(C)(C)C)C(C)=C1C3(C)C)[C@]1(OC(C)=O)CO[C@@H]1C[C@@H]2O` (some centres undefined): the values for the IC50 (with MCF7 [1]; in the assay on MCF7 [2]; in assay [3]) were 5 nM, 0.8 nM and 1.5 nM, respectively.
For `CCC(=O)O[C@H]1C(=O)[C@@]2(C)C([C@H](OC(=O)c3cccc(OC)c3)[C@]3(O)C[C@H](OC(=O)[C@H](O)[C@H](C=C(C)C)NC(=O)OC(C)(C)C)C(C)=C1C3(C)C)[C@]1(OC(C)=O)CO[C@@H]1C[C@@H]2O` (some centres undefined), the IC50 is 0.33 nM in the assay with MCF7 [1], 0.36 nM with MCF7 [2] and 1 nM in assay [3].
The like results for `CCC(=O)O[C@H]1C(=O)[C@@]2(C)C([C@H](OC(=O)c3cccc(OC)c3)[C@]3(O)C[C@H](OC(=O)[C@H](O)[C@@H](NC(=O)OC(C)(C)C)C(F)F)C(C)=C1C3(C)C)[C@]1(OC(C)=O)CO[C@@H]1C[C@@H]2O` (some centres undefined) were, in that order, 4.3 nM, 0.4 nM and 1.5 nM.
The matching figures for `CCC(=O)O[C@H]1C(=O)[C@@]2(C)C([C@H](OC(=O)c3cccc(OC)c3)[C@]3(O)C[C@H](OC(=O)[C@H](O)[C@@H](NC(=O)OC(C)(C)C)[C@H]4CC4(C)C)C(C)=C1C3(C)C)[C@]1(OC(C)=O)CO[C@@H]1C[C@@H]2O` (some centres undefined): 1.5 nM, 0.6 nM and 0.48 nM.
Turning to `CC(=O)O[C@H]1C(=O)[C@@]2(C)[C@H]([C@H](OC(=O)c3ccccc3)[C@]3(O)C[C@H](OC(=O)[C@H](O)[C@@H](NC(=O)c4ccccc4)c4ccccc4)C(C)=C1C3(C)C)[C@]1(OC(C)=O)CO[C@@H]1C[C@@H]2O` [PACLITAXEL], the half-maximal inhibitory concentration (IC50) was determined as 346 nM in assay [5] and 3.1 nM in assay [3].
The like results for `CC(=O)O[C@@]12CO[C@@H]1C[C@H](O)[C@@]1(C)C(=O)[C@H](O)C3=C(C)[C@@H](OC(=O)[C@H](O)[C@@H](NC(=O)OC(C)(C)C)c4ccccc4)C[C@@](O)([C@@H](OC(=O)c4ccccc4)[C@H]21)C3(C)C.O.O.O` [DOCETAXEL] were, in that order, 120 nM and 1 nM.
`COc1cccc(C(=O)O[C@H]2C3[C@](C)(C(=O)[C@H](OC(C)=O)C4=C(C)[C@@H](OC(=O)[C@H](O)[C@H](C=C(C)C)NC(=O)OC(C)(C)C)C[C@]2(O)C4(C)C)[C@@H](O)C[C@H]2OC[C@@]32OC(C)=O)c1` (some centres undefined): the IC50 in the assay on MCF7 [1] was 2.3 nM; in the assay on MCF7 [2], 0.8 nM; in assay [3], 0.6 nM.
`CCC(=O)O[C@H]1C(=O)[C@@]2(C)C([C@H](OC(=O)c3cccc(F)c3)[C@]3(O)C[C@H](OC(=O)[C@H](O)[C@H](CC(C)C)NC(=O)OC(C)(C)C)C(C)=C1C3(C)C)[C@]1(OC(C)=O)CO[C@@H]1C[C@@H]2O` (some centres undefined): the IC50 in assay [3] was 0.4 nM.
